Data on 20 compounds can be found in ChEMBL document CHEMBL5247614, “An overview of aryl hydrocarbon receptor ligands in the Last two decades (2002-2022): A medicinal chemistry perspective” (Eur J Med Chem, 2022).

Data set [1] concerns Saccharomyces cerevisiae. Description: Activation of transcription in yeast expressing AhR and ARNT. The class given is functional, organism-based.
The target in data set [2] is T1, Aryl hydrocarbon receptor (Homo sapiens, UniProt P35869).
T1 sequence (P35869 whole entry): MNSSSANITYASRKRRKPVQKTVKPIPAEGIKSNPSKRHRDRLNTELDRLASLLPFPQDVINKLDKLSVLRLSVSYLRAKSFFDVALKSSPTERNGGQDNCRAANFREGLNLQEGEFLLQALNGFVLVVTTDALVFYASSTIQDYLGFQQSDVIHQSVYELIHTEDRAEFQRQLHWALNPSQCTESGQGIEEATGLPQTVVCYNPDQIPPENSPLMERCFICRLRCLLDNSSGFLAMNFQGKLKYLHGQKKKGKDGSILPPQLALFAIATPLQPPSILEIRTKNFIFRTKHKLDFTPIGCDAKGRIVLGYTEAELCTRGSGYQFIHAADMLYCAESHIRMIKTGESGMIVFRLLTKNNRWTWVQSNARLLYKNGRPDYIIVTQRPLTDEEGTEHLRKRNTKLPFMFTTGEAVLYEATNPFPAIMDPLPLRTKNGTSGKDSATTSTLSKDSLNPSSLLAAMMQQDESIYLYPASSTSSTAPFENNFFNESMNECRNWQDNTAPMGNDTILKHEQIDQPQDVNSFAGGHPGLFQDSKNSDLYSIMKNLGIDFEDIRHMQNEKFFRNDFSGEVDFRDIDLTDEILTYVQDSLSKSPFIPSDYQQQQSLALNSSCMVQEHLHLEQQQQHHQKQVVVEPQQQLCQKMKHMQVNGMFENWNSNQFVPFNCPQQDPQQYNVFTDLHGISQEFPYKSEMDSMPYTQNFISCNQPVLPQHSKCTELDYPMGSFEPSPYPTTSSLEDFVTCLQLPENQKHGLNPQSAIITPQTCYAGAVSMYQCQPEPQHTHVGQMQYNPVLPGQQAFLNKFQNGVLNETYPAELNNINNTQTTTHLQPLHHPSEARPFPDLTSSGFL
Nature of the data set: Antagonist activity at AhR (unknown origin).

Data set [3] has as its target T1, Aryl hydrocarbon receptor. Description: Binding affinity to AhR (unknown origin) assessed as dissociation constant.
Data set [4] has as its system CYP1A1. Description: Upregulation of CYP1A1 gene expression in human MDA-MB-468 cells transfected with XRE plasmid containing AhR responsive luciferase construct and renilla luciferase assessed as fold change in gene expression at 1 uM incubated for 1 hr by dual-glo luciferase assay relative to control. The note with it: read-out: FC. The class given is ADME, cell-based.

Data set [5] concerns CYP1A1. Description: Upregulation of CYP1A1 gene expression in human MDA-MB-468 cells transfected with XRE plasmid containing AhR responsive luciferase construct and renilla luciferase assessed as fold change in gene expression at 1 uM incubated for 24 hrs by dual-glo luciferase assay relative to control. The class given is ADME, cell-based. The note with it: read-out: FC.
Data set [6] concerns the target T1, Aryl hydrocarbon receptor. Description: Modulator activity at AhR (unknown origin).
The target in data set [7] is T1, Aryl hydrocarbon receptor. Description: Agonist activity at AhR (unknown origin).
For data set [8], the target named is T2, Aryl hydrocarbon receptor (Rattus norvegicus, UniProt P41738).
T2 sequence (P41738 whole entry): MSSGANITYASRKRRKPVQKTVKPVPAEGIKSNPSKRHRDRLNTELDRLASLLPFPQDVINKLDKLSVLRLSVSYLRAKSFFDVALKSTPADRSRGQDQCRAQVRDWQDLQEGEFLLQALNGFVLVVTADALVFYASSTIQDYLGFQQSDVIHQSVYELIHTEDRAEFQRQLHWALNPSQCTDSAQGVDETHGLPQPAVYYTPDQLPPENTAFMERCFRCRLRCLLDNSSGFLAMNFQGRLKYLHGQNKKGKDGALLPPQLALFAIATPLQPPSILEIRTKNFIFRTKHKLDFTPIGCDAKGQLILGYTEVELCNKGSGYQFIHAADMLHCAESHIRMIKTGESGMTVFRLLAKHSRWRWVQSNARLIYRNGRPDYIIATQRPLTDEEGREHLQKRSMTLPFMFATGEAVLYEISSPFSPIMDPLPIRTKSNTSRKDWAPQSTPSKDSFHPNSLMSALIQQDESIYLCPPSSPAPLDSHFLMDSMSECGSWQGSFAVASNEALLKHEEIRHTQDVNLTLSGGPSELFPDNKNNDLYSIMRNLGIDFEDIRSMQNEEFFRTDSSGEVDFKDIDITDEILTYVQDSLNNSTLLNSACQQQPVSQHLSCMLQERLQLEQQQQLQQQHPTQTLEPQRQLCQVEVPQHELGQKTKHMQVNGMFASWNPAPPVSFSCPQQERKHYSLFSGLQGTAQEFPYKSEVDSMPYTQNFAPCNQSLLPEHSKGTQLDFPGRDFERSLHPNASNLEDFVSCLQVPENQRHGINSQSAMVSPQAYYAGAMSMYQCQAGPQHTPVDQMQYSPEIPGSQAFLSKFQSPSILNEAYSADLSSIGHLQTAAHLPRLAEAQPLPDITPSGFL
Nature of the data set: Antagonist activity at AhR in rat liver cytosol assessed as inhibition of TCDD-induced AhR/DNA complex formation by gel retardation assay. The class given is subcellular.

Data set [9] addresses T2, Aryl hydrocarbon receptor. Description: Inhibition of TCDD binding to rat liver cytosol AhR. The class given is subcellular.
Data set [10] has as its target T1, Aryl hydrocarbon receptor. Description: Antagonist activity at AhR (unknown origin) expressed in human U87 cells assessed as inhibition of kynurenic acid-induced transactivation by Renilla/Firefly based dual-glo luciferase assay. The class given is cell-based.
Data set [11] in a line: Inhibition of kynurenic acid-induced CYP1A1 gene expression in human U-937 cells by qPCR analysis. The class given is ADME, cell-based. On the technique in general: Real-time PCR tracks product formation cycle by cycle.
In data set [12] the target is T1, Aryl hydrocarbon receptor.
In data set [13] the target is T1, Aryl hydrocarbon receptor. Nature of the data set: Antagonist activity at AhR (unknown origin) assessed as inhibition of TCDD-induced luciferase activity.
For data set [14], the target named is T1, Aryl hydrocarbon receptor. Nature of the data set: Activation of human AhR expressed in Saccharomyces cerevisiae YCM3 coexpressing ARNT incubated for 18 hrs.
For data set [15], the target named is T1, Aryl hydrocarbon receptor. Description: Antagonist activity at AhR (unknown origin) assessed as inhibition of receptor activation.

In general, EC50 refers to the midpoint of the concentration-response curve. For the compound `N[C@@H](Cc1c[nH]c2ccccc12)C(=O)O` [TRYPTOPHAN], the midpoint of the response in data set [1], the EC50, lay at 300000 nM.

As a reminder, the IC50 is the point on the concentration scale where inhibition reaches its midpoint. For `Cc1[nH]c2c(C)cccc2c1C`, in data set [2], the IC50 came to 12000 nM.

One may read the Kd as the constant that tells how readily two partners part at equilibrium. With `CCS(=O)(=O)c1ccc2oc(-c3ccc4ccccc4c3)nc2c1` [EZUTROMID], in data set [3], the Kd was found to be 50 nM.

On to `Nc1ccccc1N1C(=O)c2cccc3cccc(c23)C1=O`, for which the fold induction at 1 h, 1 µM in data set [4] turned out to be 25. Moreover, the fold induction at 24 h, 1 µM in data set [5] was 250.

For the compound `O=C(O)Cc1c[nH]c2ccccc12` [INDOLE-3-ACETIC ACID], the EC50 in [1] was found to be 300000 nM.

With `c1ccc2c(Cc3c[nH]c4ccccc34)c[nH]c2c1` [ARUNDINE], the Kd in data set [3] stood at 90 nM. The compound also returned an EC50 in data set [6] of 78000 nM.

In data set [1], `NCCc1c[nH]c2ccccc12` [TRYPTAMINE] returned an EC50 of 300000 nM.

For the compound `O=c1c(Cc2c[nH]c3ccccc23)nccc2c1[nH]c1ccccc12`, the EC50 in data set [7] was 12 nM.

Take `COc1ccc(-c2coc3ccccc3c2=O)cc1N`: the IC50 in data set [8] is 1000 nM; in [9], 4000 nM.

In the case of `c1ccc2c(c1)Nc1nc3ccccc3c3ccnc-2c13`, in data set [7], the EC50 turned out to be 0.01 nM. In other words, the picomolar range.

As for `O=C(NCC(O)C(F)(F)F)c1cc(-c2ccc(OC(F)(F)F)cc2)nn(-c2cccnc2)c1=O` (centres undefined), inhibition in data set [2] was half-maximal at 82.2 nM (IC50).

`CC(CO)NC(=O)c1cc(-c2ccc(Cl)cc2)nn(-c2cccc(F)c2)c1=O` (centres undefined): the IC50 in data set [10] was 39.9 nM; in data set [11] it was 70700 nM.

In data set [12], `CC(C)n1cnc2c(NCCc3ccc(O)cc3)nc(-c3csc4ccccc34)nc21` showed an IC50 of 127 nM.

As for `Cc1ccccc1/N=N/c1ccc(NC(=O)c2ccnn2C)c(C)c1`, the IC50 in data set [13] is 30 nM.

Turning to `CC(C)c1cnn2c(N[C@@H]3CCc4[nH]c5ccccc5c4C3)nc(-c3cncc(F)c3)nc12`, the IC50 in data set [2] was less than 500 nM.

As to `Clc1cc2c(cc1Cl)Oc1cc(Cl)c(Cl)cc1O2` [2,3,7,8-TETRACHLORODIBENZO-P-DIOXIN], a half-maximal response in data set [14] (EC50) required 9 nM. That is a single-digit nanomolar value.

As a reminder, the EC70 is the concentration needed for an effect of 70%. `O=C1CC(C(=O)O)c2c1oc(=O)c1cc(O)c(O)c(O)c21` (centres undefined): the EC70 in [15] was found to be 3900 nM.

Turning to `c1ccc2[nH]ccc2c1` [INDOLE], the response in data set [1] was half-maximal at 300000 nM (EC50).

With `c1ccc2c(c1)[nH]c1cc3c(cc12)[nH]c1ccccc13`, the Kd in [3] amounted to 0.19 nM.

`Cc1[nH]c2ccccc2c1C` gave an IC50 in data set [2] of 11000 nM.
